According to patent publication US9334475B2, “Method for inducing erythropoietin-producing cell” (Kyoto University, priority 2012, dated 2016):

Experiments:
[1] = tested on: EPO-producing cells induced to differentiate from human iPS cells; assay: EPO production-promoting ability in Step 2 of differentiation of human iPS cells; format: cell-based; conditions: Step 2, compared with IGF-2 (FIG. 4)
Protocol: (§1) Human iPS cells (201B6, 201B7, and 253G4) were obtained from Professor Yamanaka of Kyoto University, and cultured in accordance with a conventional method (Takahashi K, et al. Cell. 131: pp. 861 to 872). Using SNL cells (McMahon, A. P. and Bradley, A. (1990) Cell 62; pp. 1073 to 1085) as feeder cells, the iPS cells were cultured to 80 to 90% confluency on a 6 cm dish. The cells were then detached by adding a CTK solution and the feeder cells were removed, and 1 mL of Accutase™ was added to dissociate the iPS cells into single cells.
Subsequently, the iPS cells were suspended in an RPMI medium containing 10 μM Y-27632, 2% B27, and penicillin/streptomycin and then seeded in a Matrigel-coated 24-well plate at 250,000 cells/well. After adding 100 ng/mL Activin and 1 μM CHIR99021, the volume of medium was adjusted to 0.5 mL/well, and the cells were cultured for six days (Step 1). At this time, on Day 2, 0.5 mM NaB was added to the medium (without medium exchange), and on Day 3, the medium was exchanged for a medium containing 100 ng/mL A ctivin, 1 μM CHIR99021, and 0.5 mM NaB, and on Day 5, the medium was exchanged for a medium containing 100 ng/mL Activin and 1 μM CHIR99021. […]
In Step 2, the cells were analyzed after 18 days of culture. […]

[2] = tested on: EPO-producing cells induced to differentiate from human iPS cells; assay: ELISA of extracellular EPO secretion by EPO-producing cells at various IGF-1 concentrations; format: cell-based
Protocol: as §1
Subsequently, the iPS cells were suspended in an RPMI medium containing 10 μM Y-27632, 2% B27, and penicillin/streptomycin and then seeded in a Matrigel-coated 24-well plate at 250,000 cells/well. After adding 100 ng/mL Activin and 1 μM CHIR99021, the volume of medium was adjusted to 0.5 mL/well, and the cells were cultured for six days (Step 1). At this time, on Day 2, 0.5 mM NaB was added to the medium (without medium exchange), and on Day 3, the medium was exchanged for a medium containing 100 ng/mL A ctivin, 1 μM CHIR99021, and 0.5 mM NaB, and on Day 5, the medium was exchanged for a medium containing 100 ng/mL Activin and 1 μM CHIR99021.
After six days of culture, the medium was replaced by a DMEM medium containing 1% DMSO, 50 ng/mL IGF-1, 20% KSR, 2 mM L-glutamine, nonessential amino acid (NEAA), 100 μM β-ME (2-mercaptoethanol), 50 mU/L penicillin, and 50 μg/L streptomycin, and the cells were cultured for a certain period of days (Step 2). During cell culture, the medium was exchanged every other day.
Subsequently, ELISA was performed to study whether the EPO protein expressed was secreted out of the cells. As a result, EPO protein was confirmed outside the cells. […] Further, as a result of studying the amount of IGF-1 added and the number of days of culture, the highest amount of EPO secretion was observed when the cells were cultured for 10 days at 50 ng/mL (FIG. 6). […]

IGF-1: IGF family gene product used as a growth factor in the Step 2 medium
EPO production-promoting ability [1]: promote EPO production more potently than IGF-2
days of culture in Step 2 giving the highest amount of EPO secretion ([2]; IGF-1 at 50 ng/mL (FIG. 6)): 10 days
change in EPO secretion over time ([2]; IGF-1 at 100 ng/mL, Step 2 (FIG. 6)): an increasing trend of EPO secretion was confirmed up to Day 12
concentration of IGF-1 added that increased the amount of extracellular secretion of EPO ([2]; Step 2, ELISA, Day 8 cells (FIG. 5)): ≥ 1 ng/mL
